Test results from paper PMC10053770, “Assessment of the Pharmacokinetics, Disposition, and Duration of Action of the Tumour-Targeting Peptide CEND-1” (International Journal of Molecular Sciences, 2023).
Read-outs that look alike come from different tables or passages of the source.

How the values were obtained:
[1] = Clinical pharmacokinetics in patients with metastatic pancreatic ductal adenocarcinoma; type: in vivo, human; conditions: for Vd: 3.2 mg/kg, read-out: Vz
Method: In this study, CEND-1 PK data from up to 28 participants receiving either 1.6 mg/kg (n = 14) and 3.2 mg/kg (n = 14) in the expansion cohort were analysed. Details of this phase I clinical study, conducted in patients with metastatic pancreatic ductal adenocarcinoma receiving CEND-1 in combination with nab-paclitaxel and gemcitabine, are described in detail by Dean et al.. PK parameters were measured following CEND-1 monotherapy (run-in day 1) and combination therapy (cycle 1 day 1 and cycle 6 day 1, if applicable).
In the initial monotherapy run-in phase, single doses of CEND-1 were given one to seven days before the start of the combination chemotherapy. In the combination therapy phase, patients first received an intravenous infusion of nab-paclitaxel (125 mg/m^2) over 30 min (±3 min). CEND-1 was then given intravenously as a slow IV push over 1 min (±30 s). The intravenous infusion of gemcitabine (1000 mg/m^2 over 30 min (±3 min)) was started within 10 min of CEND-1 administration. On all occasions, plasma samples were collected from patients before the CEND-1 infusion and at 3 min (±1 min), 15 min (±3 min), 30 min (±3 min), 1 hour (±5 min), ¾ h (±10 min) and 6/8 h (±10 min) after completion of the infusion.
(§1) No formal sample size calculation was performed. Samples of 2–12 animals and 31 pancreatic cancer patients were considered acceptable to perform initial pharmacokinetic evaluations. The concentrations of CEND-1 were used to calculate PK parameters by employing a non-compartmental analysis (Phoenix^TM WinNonlin, version 6.1). The linear log trapezoidal algorithm, with a weighting of 1/Y*Y was used for parameter calculations. Mean PK parameters were calculated from individual animals in each treatment group. Concentrations below the LLOQ (if any) were excluded for the calculation of PK parameters. The mean values of PK parameters were calculated using Microsoft Excel version 2010.

[2] = Single-dose intravenous pharmacokinetics in mice; type: in vivo, mouse; conditions: for clearance: read-out: Cl_obs (converted); for Vd: read-out: V
Method: The in vivo pharmacokinetic profile of CEND-1 after a single dose was evaluated in four non-GLP animal studies including Sprague-Dawley rats, Beagle dogs, cynomolgus monkeys and BALB/c mice following the intravenous injection of CEND-1 at various doses (1, 5 and 50 mg/kg for rats, dogs and monkeys; 1.5, 4.5 and 13.5 mg/kg for mice) (Table 1). Blood samples were collected for pharmacokinetic evaluations pre-dose and at 1, 5, 10, 15 and 30 min, and 1, 2 and 6 h post-dose in rats, dogs and monkeys, and 3, 10, 30 and 90 min, and 4 and 8 h post-dose in mice.
Plasma CEND-1 was quantified by validated liquid chromatography coupled with a tandem mass spectrometry (LC/MS/MS) assay. Tolbutamide or leuprorelin acetate were used as internal standards. AB Sciex Triple Quad API 5500 (Sciex, Framingham, MA, USA), operated in the positive electrospray ionization (ESI) mode, was used to monitor the precursor to production ion transitions of m/z 495.4→69.9.
as §1

[3] = parameters: method as in PMID 35803294; conditions: phase I trial, monotherapy and in combination with chemotherapy drugs; cited from earlier work
[4] = pancreatic cancer patients, 3.2 mg/kg IV, plasma, Cycle 1 Day 1 with nab-paclitaxel+gemcitabine, mean, N=9
[5] = pancreatic cancer patients, 3.2 mg/kg IV, plasma, Cycle 1 Day 1 with nab-paclitaxel+gemcitabine, mean, N=13
[6] = pancreatic cancer patients, 3.2 mg/kg IV, plasma, Cycle 6 Day 1 with nab-paclitaxel+gemcitabine, N=1
[7] = pancreatic cancer patients, 3.2 mg/kg IV, plasma, Cycle 6 Day 1 with nab-paclitaxel+gemcitabine, mean, N=5
[8] = pancreatic cancer patients, 3.2 mg/kg IV, plasma, Run-In (monotherapy), mean, N=7
[9] = pancreatic cancer patients, 3.2 mg/kg IV, plasma, Run-In (monotherapy), mean, N=8
[10] = male, BALB/c mouse, M, n=3, 1.5 mg/kg single IV, plasma LC/MS/MS, non-compartmental, one time point per animal
[11] = male, BALB/c mouse, M, n=3, 4.5 mg/kg single IV, plasma LC/MS/MS, non-compartmental, one time point per animal
[12] = male, BALB/c mouse, M, n=3, 13.5 mg/kg single IV, plasma LC/MS/MS, non-compartmental, one time point per animal

- Vd ([1]; human, plasma, iv, pancreatic cancer patients, 3.2 mg/kg IV, plasma, Cycle 1 Day 1 with nab-paclitaxel+gemcitabine, mean, N=9): 0.263 L/kg
- Vd ([1]; human, plasma, iv, pancreatic cancer patients, 3.2 mg/kg IV, plasma, Run-In (monotherapy), mean, N=7): 0.269 L/kg
- Tmax ([1]; human, plasma, iv, patients, run-in day 1, 1.6 and 3.2 mg/kg, read-out: time of peak plasma concentration (first post-dose PK sampling timepoint) (converted)): 3 min
- level at 8 h ([1]; human, plasma, patients, run-in day 1, 1.6 and 3.2 mg/kg IV, SD = 317.9, read-out: mean plasma concentration by 8 h post-dose): 439 ng/mL
- AUC0-t ([1]; human, pancreatic cancer patients, 3.2 mg/kg IV, plasma, Cycle 6 Day 1 with nab-paclitaxel+gemcitabine, mean, N=5, read-out: AUC0-t): 30600 ng·h/mL
- Cmax ([1]; human, pancreatic cancer patients, 3.2 mg/kg IV, plasma, Cycle 6 Day 1 with nab-paclitaxel+gemcitabine, mean, N=5, read-out: Cmax): 25800 ng/mL
- Tmax ([1]; human, pancreatic cancer patients, 3.2 mg/kg IV, plasma, Cycle 6 Day 1 with nab-paclitaxel+gemcitabine, mean, N=5, read-out: Tmax): 3.78 min
- AUC0-inf/D [1, 4]: 9592 kg·ng·h/mL
- AUC(0-inf) [1, 4]: 30,690 h*ng/mL
- CL [1, 4]: 1.792 mL/min/kg
- t1/2 [1, 4]: 103.5 min
- λlast [1, 4]: 0.4082 h⁻¹
- AUC0-t [1, 5]: 28,610 h*ng/mL
- AUC0-t/D [1, 5]: 8942 kg·ng·h/mL
- Cmax [1, 5]: 24,050 ng/mL
- Cmax/D [1, 5]: 7514 kg*ng/mL/m
- Tlast [1, 5]: 5.767 h
- Tmax [1, 5]: 6.78 min
- AUC0-inf/D [1, 6]: 10,440 h*kg*ng/mL
- AUC(0-inf) [1, 6]: 33,400 h*ng/mL
- CL [1, 6]: 1.6 mL/min/kg
- Vz [1, 6]: 0.2209 L/kg
- t1/2 [1, 6]: 95.88 min
- λlast [1, 6]: 0.4338 h⁻¹
- AUC0-t/D [1, 7]: 9558 kg·ng·h/mL
- Cmax/D [1, 7]: 8050 kg*ng/mL/m
- Tlast [1, 7]: 4.897 h
- AUC0-inf/D [1, 8]: 10,800 h*kg*ng/mL
- AUC(0-inf) [1, 8]: 34,560 h*ng/mL
- CL [1, 8]: 1.63 mL/min/kg
- t1/2 [1, 8]: 117.4 min
- λlast [1, 8]: 0.3607 h⁻¹
- AUC0-t [1, 9]: 31,330 h*ng/mL
- AUC0-t/D [1, 9]: 9791 kg·ng·h/mL
- Cmax [1, 9]: 31,210 ng/mL
- Tlast [1, 9]: 6.725 h
- Tmax [1, 9]: 7.02 min
- plasma half-life ([1]; patients, intravenous administration): ~120 min
- half-life ([2]; BALB/c, mouse, plasma, iv, mice, single intravenous dose, read-out: average plasma half-life): ~25 min
- C0 ([2]; BALB/c, plasma, iv, mouse, dose level of 4–5 mg/kg, read-out: Cmax (C0)): ~40000 ng/mL
- half-life ([2]; male, BALB/c, mouse, plasma, iv, 1.5 mg/kg, BALB/c mouse, M, n=3, 1.5 mg/kg single IV, plasma LC/MS/MS, non-compartmental, one time point per animal, read-out: t1/2 (converted)): 18.4 min
- half-life ([2]; male, BALB/c, mouse, plasma, iv, 4.5 mg/kg, BALB/c mouse, M, n=3, 4.5 mg/kg single IV, plasma LC/MS/MS, non-compartmental, one time point per animal, read-out: t1/2 (converted)): 20.6 min
- half-life ([2]; male, BALB/c, mouse, plasma, iv, 13.5 mg/kg, BALB/c mouse, M, n=3, 13.5 mg/kg single IV, plasma LC/MS/MS, non-compartmental, one time point per animal, read-out: t1/2 (converted)): 32.8 min
- AUC(0-inf) [2, 10]: 1480 ng·h/mL
- C0 ([2]; male, BALB/c mouse, M, n=3, 1.5 mg/kg single IV, plasma LC/MS/MS, non-compartmental, one time point per animal, read-out: C0): 10300 ng/mL
- clearance [2, 10]: 16.9 mL/min/kg
- Vd [2, 10]: 0.449 L/kg
- AUC(0-inf) [2, 11]: 3700 ng·h/mL
- C0 ([2]; male, BALB/c mouse, M, n=3, 4.5 mg/kg single IV, plasma LC/MS/MS, non-compartmental, one time point per animal, read-out: C0): 40300 ng/mL
- clearance [2, 11]: 20.1 mL/min/kg
- Vd [2, 11]: 0.599 L/kg
- AUC(0-inf) [2, 12]: 10600 ng·h/mL
- C0 ([2]; male, BALB/c mouse, M, n=3, 13.5 mg/kg single IV, plasma LC/MS/MS, non-compartmental, one time point per animal, read-out: C0): 68400 ng/mL
- clearance [2, 12]: 21.3 mL/min/kg
- Vd [2, 12]: 1.01 L/kg
Structure (SMILES): CC(=O)N[C@H]1CSSC[C@@H](C(N)=O)NC(=O)[C@H](CC(=O)O)NC(=O)[C@@H]2CCCN2C(=O)CNC(=O)[C@H](CCCCN)NC(=O)[C@H](CC(=O)O)NC(=O)CNC(=O)[C@H](CCCNC(=N)N)NC1=O [CEND-1]
- safety profile [3]: acceptable safety profile
